From US6420371B1, “Quinazolinone-containing pharmaceutical compositions for prevention of neovascularization and for treating malignancies” (Madasit Medical Research Services & Development Co., Ltd., priority 1997, dated 2002)
Converted amounts (≈) assume the structure as drawn. “And” between values parts separate entries of the source, which are not always exact repeats. Equal values may be shown once. Read-outs that look alike come from different tables or passages of the source.

Legend:
T50 bladder carcinoma = experiment: Inhibition of in vivo growth of T50 bladder carcinoma in C3H mice; conditions: for tumor volume (group mean): Halofuginone containing diet 5 mg/kg; for T50 Tumor Size: individual mice, diet containing 5 mg/kg Halofuginone, day 17
Experimental: C3H mice were divided into two groups (6 mice each). The experimental group received a diet containing 5 mg/kg of Halofuginone 3 days prior to the injection of T50 bladder carcinoma cells and during 2 weeks after. […] The right side received 0.4 * 10^5 cells, and the left side received 2 * 10^5 cells. The tumor size was estimated by measurement of tumor length in two directions, using the formula V=LW^2/2, where V is volume, L is length and W is width. At the end of the experiment at day 17, the mice were weighed, the tumors were excised and a sample of the tumor tissue was fixed and processed for histological examination.

[1] = tested on: bovine aortic endothelial cells; experiment: Organization of endothelial cells into capillary-like networks in type I collagen gel; assay type: cell-based; conditions: 0.1 μg/ml Halofuginone; bFGF 1 ng/ml and heparin 1 μg/ml
Experimental: Type I collagen was prepared from the tail tendons of adult Sprague Dawley rats. Briefly, the collagen fibers were solubilized by a slow stirring for 48 h at 4° C. in a sterile, 1/1000 (w/v) acetic acid solution (300 ml for 1 g of collagen). The resulting solution was filtered through a sterile triple gauze and centrifuged at 16,000 g for 1 h at 4° C. The supernatant was then extensively dialyzed against 1/10. DMEM and stored at 4° C. The collagen matrix gel was obtained by simultaneously raising the pH and ionic strength of the collagen solution. For this purpose, 7 vol of collagen solution were quickly mixed with 1 vol of 10X Minimum Essential Medium and 2 vol sodium bicarbonate (0.15 M) [R. F. Nicosa and A. Ottinetti, Lab. Invest, Vol. 63, pp. 115-122 (1990)]. Bovine aortic endothelial cells were seeded into 16 mm wells of a 24-well plate and allowed to grow for 24 h, to obtain a subconfluent monolayer. The culture medium was then removed and 0.4 ml of the cold collagen mixture described above were poured on top of the cell monolayer and allowed to polymerize for 10 min at 37° C. […] The reorganization of the endothelial cell monolayer was monitored and photographed with a Zeiss inverted phase contrast photomicroscope [K. Monesano, et al., J. Cell Biol., Vol. 97, pp. 1648-1652 (1983)].

rat aortic rings = experiment: Microvessel formation from rat aortic rings embedded in type I collagen gel; assay type: cell-based
Experimental: Thoracic aortas were obtained from 1- to 2-month-old SD (Sprague-Dawley) rats sacrificed by decapitation [R. F. Nicosia and A. Ottinetti, Lab. Invest, Vol. 63, pp. 115-122 (1991)]. The aortas were immediately transferred to a Petri dish with PBS. The fibro-adipose tissue around the aorta was carefully removed under a dissecting microscope, and 1 mm-long aortic rings were sectioned and extensively rinsed in PBS. Type I collagen solution (0.2 ml) was added to each 16-mm well and gellation was allowed for 15 min at 37° C. Each aorta ring was transferred and positioned to the center of the gel and another 0.4 ml of the collagen solution was carefully poured on top of the ring. […]

EHS sarcoma = experiment: Inhibition of in vivo growth of EHS tumor in C57BL/6 mice
Experimental: Animals bearing Engelbreth-Holm-Swarm (EHS) tumors were sacrificed and the tumor tissue was excised and minced under aseptic conditions. The EHS tumor is characterized by a large amount of basement membrane components. A suspension of the tumor tissue in 0.2 ml of PBS was injected subcutaneously in the dorsal posterior region of C57BL/6 male mice. The mice were divided into two groups of 10 mice each. The animals of the experimental group were fed with a diet containing 5 mg/kg Halofuginone for 3 days prior to tumor injection and during 3 weeks after. The tumor size was estimated by measurement of tumor length in two directions, using the formula V=LW^2/2. On the final day of the experiment, i.e., 20 days after tumor injector, the mice were weighed the tumors were exceed and a sample of the tumor tissue was fixed and processed for histological examination.

rat mesengial cells = experiment: Sulfate and glycine incorporation into rat mesengial cell ECM; assay type: cell-based; conditions: for inhibition at 0.05 µg/mL: 50 ng/ml Halofuginone; for inhibition at 0.2 µg/mL: 200 ng/ml Halofuginone
Experimental: Rat […] grown to confluency, 24 hours after seeding. The cells were then cultured with or without Halofuginone in the presence of either Na2^35SO4 (FIGS. 9A and 9B) or ^14C-glycine (FIGS. 9C and 9D). Eight days after sending, the cell layer was dissolved to expose the underlying ECM, washed and digested with collagenase to determine the effect of Halofuginone on CDP proteins, as shown in FIGS. 9A and 9C. The remaining material was digested with trypsin and subjected to β-scintillation counting to determine the effect of halofuginone on NCDP proteins, as shown in FIGS. 9B and 9D.

[2] = tested on: bovine aortic endothelial cells; experiment: 3H-thymidine incorporation into vascular endothelial cells; assay type: cell-based; conditions: 48 hours
Experimental: Cultures of vascular endothelial cells were established from bovine aorta as previously described [D. Gospodarowicz, et al., Proc. Natl. Acad. Sci. U.S.A., Vol. 73, p. 4120 (1979)]. Bovine aortic endothelial cells were plated (4×10^4 cells/16 mm well) in DMEM (1 g glucose/liter) supplemental with 10% calf serum, 50 U/ml penicillin, and 50 μ/ml streptomycin at 37° C. in 10% CO2 humidified incubators. Four days after plating, the subconfluent cells were exposed to increasing concentrations of Halofuginone (100-500 ng/ml), in the absence of presence of 1 ng/ml bFGF. ^3H-thymidine (1 μCi/well) was then added for an additional 48 hours, and DNA synthesis was assayed by measuring the radioactivity incorporated into trichloroacetic acid insoluble material [M. Benezra, et al., Cancer Res., Vol 52, pp. 5656-5662 (1992); I. Vlodavsky, et al., Proc. Natl. Acad. Sci. U.S.A. Vol. 84, pp. 2292-2296 (1987)].

O=C(CC1NCCCC1O)Cn1cnc2cc(Br)c(Cl)cc2c1=O (centres unmarked) [Halofuginone]
reduction of tumor size compared to control mice (T50 bladder carcinoma; C3H mice, diet 5 mg/kg Halofuginone): 70-80%
overall weight of mice (T50 bladder carcinoma; Halofuginone treated C3H mice, lower due to lower tumor burden): 24 ± 3.1 g
tumor volume (group mean) (T50 bladder carcinoma; high tumor cell dose): 1.0±0.92 cm^3
T50 Tumor Size (T50 bladder carcinoma; 0.4 * 10^5 cells s.c.): 0.730 cm^3 and 0.510 cm^3 and 0.036 cm^3 and 0.064 cm^3 and 0.150 cm^3
T50 Tumor Size (T50 bladder carcinoma; 2 * 10^5 cells s.c.): 2.0 cm^3 and 1.1 cm^3 (2×) and 0.7 cm^3 and 0.1 cm^3
tumor volume (group mean) (T50 bladder carcinoma; lower tumor cell dose): 0.29±0.28 cm^3
invasion of endothelial cells into collagen gel and organization into capillary-like tubes [1]: completely inhibited
inhibition of microvessel formation (rat aortic rings; 100 ng/ml Halofuginone): almost complete inhibition
inhibition of microvessel formation (rat aortic rings; 250 ng/ml Halofuginone): Complete inhibition
reversibility of inhibition of microvessel formation (rat aortic rings; removal of the drug on day 2): reversed upon removal of the drug on day 2
tumor volume (group mean) (EHS sarcoma; C57BL/6 mice fed Halofuginone 5 mg/kg diet): 1.72±1.85 cm^3
reduction of tumor size compared to control mice (EHS sarcoma; C57BL/6 mice, diet 5 mg/kg Halofuginone): about 75%
weight of mice (EHS sarcoma; Halofuginone-fed C57BL/6 mice, nearly normal weight): 19.7 ± 0.47 g
EHS Tumor Size (EHS sarcoma; individual mice, diet 5 mg/kg Halofuginone, 20 days after tumor injection): 0 cm^3 (2×) and 2.2 cm^3 and 0.04 cm^3 and 6.5 cm^3 and 3.0 cm^3 and 1.3 cm^3 (2×) and 1.2 cm^3 and 1.7 cm^3
inhibition at 0.05 µg/mL (rat mesengial cells; read-out: inhibition of glycine incorporation, CDP proteins): ~80%
inhibition at 0.05 µg/mL (rat mesengial cells; read-out: inhibition of glycine incorporation, NCDP proteins): ~80%
inhibition at 0.2 µg/mL (rat mesengial cells; read-out: inhibition of sulfate incorporation, CDP proteins): ~30%
inhibition at 0.2 µg/mL (rat mesengial cells; read-out: inhibition of sulfate incorporation, NCDP proteins): ~70%
IC50 ([2]; Bos taurus, Endothelial cell, absence of bFGF (FIG. 2A), read-out: concentration giving 50% inhibition of 3H-thymidine incorporation): 0.1 µg/mL (≈ 0.241 µM)
concentration giving 50% inhibition of 3H-thymidine incorporation ([2]; presence of 1 ng/ml bFGF (FIG. 2B)): 100 ng/mL
